Columns and labels:
Ectocervical Cells = assay: Association and invasion (gentimicin-resistance) assays, primary ectocervical (pex) cells; type: cell-based, human
Procedure: (§1) 8. N. gonorrhoeae Attachment to and Invasion of Primary, Human, Cervical Cells. Primary cervical cell monolayers were infected with wild-type or PLD mutant gonococci as outlined above. Variable concentrations of Streptomyces spp. PLD (SsPLD) (Sigma), PMA, or 4-α phorbol were included in association (adherence and invasion) or invasion assays, as noted. Cervical cells were preincubated (30 minutes, 37° C.) with 200 nM PMA or 4-α phorbol before the addition of gonococci. 10 units ml^−1 SsPLD was added simultaneously with gonococci. Alternatively, where noted, cervical cell monolayers were pre-incubated (30 minutes, 37° C.) with pervanadate, which was made by mixing 100 μM ortho-sodium vanadate in 3 mM hydrogen peroxide. In separate assays, infection supernatants were collected from wild-type or PLD mutant-infected cervical cell monolayers, gonococci were removed by filtration through a 0.22 μm syringe filter (i.e., wild-type or mutant primed supernatants) and were added to association and/or invasion assays, as noted. The ability of gonococci to adhere to and/or invade pex and pen cells was quantitatively determined using standard gentimicin-resistance assays, performed as described previously (Edwards et al., 2000), and in which chemical or protein additives were included or excluded from the invasion assay as described above. The total association (i.e., adherence and invasion) of gonococci with pex and pen cells was quantitated by the omission of gentimicin from the above described invasion assay. Percent invasion of N. gonorrhoeae 1291 or 1291ΔPLDin the presence or absence of experimental additives was determined as a function of the original inoculum and the number of colonies formed with subsequent plating of the cellular lysate. A Kruskal-Wallis non-parametric analysis of variance was used to determine the statistical significance of the association and invasion assays described above.
N. gonorrhoeae Attachment to and Invasion of Primary, Human, Cervical Cells. Primary cervical cell monolayers were infected with wild-type or PLD mutant gonococci as outlined above. Variable concentrations of PtC (Sigma), ethanol, 2-butanol, or Streptomyces spp. PLD (SsPLD) (Sigma) were included in association (adherence and invasion) or invasion assays, as noted. PtC, ethanol, 2-butanol, or 10 units ml^−1 SsPLD were added simultaneously with gonococci. In separate assays, infection supernatants were collected from wild-type or PLD mutant-infected cervical cell monolayers, gonococci were removed by filtration through a 0.22 μm syringe filter (to yield primed wild-type or mutant supernatants), which were then added to association and/or invasion assays, as noted. The ability of gonococci to adhere to and/or invade pex and pen cells was quantitatively determined using standard gentimicin-resistance assays, performed as described previously (Edwards et al., 2000) and in which chemical or protein additives were included or excluded from the invasion assay as described above. The total association (i.e., adherence and invasion) of gonococci with pex and pen cells was quantitated by the omission of gentimicin from the above described invasion assay. Percent invasion of N. gonorrhoeae 1291 or 1291ΔPLD in the presence or absence of experimental additives was determined as a function of the original inoculum and the number of colonies formed with subsequent plating of the cellular lysate. Inhibition of gonococcal attachment and/or invasion by exogenous PtC, ethanol, or 2-butanol was determined as a normalized function of the ability of gonococci to attach to and/or invade primary cervical cells in the absence of the competimer inhibitor. A Kruskal-Wallis non-parametric analysis of variance was used to determine the statistical significance of the association and invasion assays described above.

[1] = system: primary ectocervical cells; assay: Gentamycin-resistance invasion assay of N. gonorrhoeae 1291 with inhibitors of cytoskeletal motility and protein synthesis, ectocervical cells; type: cell-based, human; conditions: for effect on bacterial entry / gonococcal invasion: both cell types (endo- and ectocervical)
Procedure: Invasion Assays in the Presence of Inhibitors of Cytoskeletal Motility and Protein Synthesis: Cervical cells were passed to 12 mm collagen-coated coverslips as outlined above. Prior to infection with N. gonorrhoeae 1291 wild-type cells, primary cell cultures were left untreated, or they were pre-incubated with 300 nM wortmannin (Sigma), 1 μM cytochalasin D (Sigma), or 400 mM ethylene glycol bis-(2-aminoethyl ether)-N,N, N′, N′ tetraacetic acid ((EGTA) Amresco, Solon, Ohio) for 2 h, 30 min, and 30 min, respectively, or they were pretreated with 100 µg/ml nocodazole (Calbiochem-Novabiochem Corp., La Jolla, Calif.) for 1 h at 4° C. followed by a 30 min incubation at 37° C. The requirement for de novo protein synthesis, either by the bacteria or by the primary cervical cells, was tested by pretreatment (30 min, 37° C.) of the bacterial cultures or cervical cell monolayers with 4 μg/ml chloramphenicol (Sigma) or 25 μM cycloheximide (Calbiochem-Novabiochem Corp.), respectively. All chemical reagents used were maintained in the infection medium throughout the course of the infection. […] Infection was allowed to progress at 37° C., 5% CO2, for 1.5 h after which the medium was removed, the cells were rinsed with PBS, and then incubated with KGM-2 containing 100 μg/ml gentamycin to kill extracellular bacteria. Post incubation the cervical cells were lysed with 0.5% saponin to release invasive bacteria. Percent invasion was determined as a function of the original inoculum and the number of colonies formed with subsequent plating of the cellular lysate. A Kruskal-Wallace ANOVA was used to determine the statistical significance of the calculated percent invasion for each of the cytoskeletal motility inhibitors used with respect to the untreated, infected cell cultures.

PLD = PLD activity (Amplex Red Phospholipase D Assay Kit) in gonococci, infected cervical cell lysates, fractions and supernatants; type: biochemical, N. gonorrhoeae
Procedure: (§2) 4. Determination of PLD Activity. PLD activity was accessed using the Amplex™ Red Phospholipase D Assay Kit (Molecular Probes, Eugene Oreg.). Wild-type and PLD mutant gonococci were suspended in PLD assay buffer to a final concentration of 10^7 bacteria ml^−1, and activity was determined according to the manufacturer's protocol. Assessment of PLD activity at acidic pH was determined in a two-step assay according to the manufacturer's protocol. For the first step, 10^8 gonococci were suspended in PBS with the pH adjusted to 3.0, 4.5, or 6.0. Gonococcal suspensions were diluted 10-fold in PLD assay buffer for the second step of the reaction. Cervical cell fractions were prepared as outlined below and PLD activity was assessed at neutral pH according to the manufacturer's protocol.
5. Fractionation of Primary Cervical Cells. Uninfected (control) and infected cervical cell monolayers were lysed in buffer A (50 mM tris, pH 7.5; 10 mM NaCl, 1 mM KCl; 2 mM MgCl2, 1 mM PMSF) by scraping cervical cells from tissue culture dishes placed on ice. The cell lysate was sonicated (two bursts of 20 seconds each). Cell debris and the nuclear fraction was removed by centrifugation (750×g, 10 minutes), and the supernatant from this spin was then subjected to filtration through a low-protein binding 0.22 μm syringe filter to ensure removal of gonococci. Alternatively, gonococci were removed by immunoprecipitation (as described by Wen et al., 2000) using the monoclonal antibody, 2C3, which recognizes the H.8 outer membrane protein of the pathogenic Neisseria. Sucrose was added to the resulting gonococcus-depleted supernatant (S1) to a final concentration of 300 mM. Ultracentrifugation (150,000×g, 90 minutes) was then performed to produce the plasma membrane-(pellet) and cytosol (supernatant 2, S2)-enriched fractions. The membrane-enriched fraction was resuspended in PLD assay buffer (50 mM Tris, 5 mM CaCl2, pH 8.0). S2 was concentrated by filtration through Centricon YM-30 centrifugal filter units (Millipore) after which cytosolic constituents were recovered in PLD assay buffer. Where indicated, prior to infection studies primary pex and pen cell monolayers were treated with 300 nM wortmannin (Sigma) (2 hours, 37° C.) or 1 μM cytochalasin D (Sigma) (30 minutes, 37° C.) to inhibit macropinocytosis of gonococci. Wortmannin and cytochalasin D were maintained in cervical cell cultures during the course of infection.
as §2, with “Determination of” for “4. Determination of”, “Assessment of gonococcal PLD activity” for “Assessment of PLD activity”
Fractionation of Primary Cervical Cells. Uninfected (control) and infected cervical cell monolayers were lysed in buffer A (50 mM tris, pH 7.5; 10 mM NaCl, 1 mM KCl; 2 mM MgCl2, 1 mM PMSF) by scraping cervical cells from tissue culture dishes placed on ice. The cell lysate was sonicated (two bursts of 20 seconds each). […] Sucrose was added to the resulting gonococcus-depleted supernatant (S1) to a final concentration of 300 mM. Ultracentrifugation (150,000×g, 90 minutes) was then performed to produce the plasma membrane-(pellet) and cytosol (supernatant 2, S2)-enriched fractions. The membrane-enriched fraction was resuspended in PLD assay buffer (50 mM Tris, 5 mM CaCl2, pH 8.0). […]

primary cervical cells = assay: Association and invasion assays, primary cervical cells (cell type not specified); type: cell-based, human; conditions: negative controls: 200 nM 4-α phorbol, 3 mM hydrogen peroxide
Procedure: The anti-PLD antibody was screened for specificity to PLD using assays well-known to the art.
as §1

[2] = system: primary human ectocervical cells; assay: rI-domain inhibition of adherence and invasion of primary ectocervical cells by N. gonorrhoeae 1291; type: cell-based
Procedure: Studies were performed evaluating the ability of the rI-domain to inhibit adherence and invasion of primary human ectocervical cells by Neisseria gonorrhoeae. The cervical cells were infected with 107 N. gonorrhoeae strain 1291. Recombinant I-domain is a potent inhibitor of ectocervical cell association by Neisseria gonorrhoeae. As little as 1 ng of rI-domain gives over 90% inhibition of invasion. With decreasing amounts of rI-domain the inhibition decreases in a dose dependent fashion.

[3] = PtC 10.0 µg/ml, wild-type gonococci

phosphatidylcholine [PtC]
Inhibition (%) (Ectocervical Cells; [3]): 98.7786 (0.08) % | Invasion (%) (Ectocervical Cells; [3]): 0.0331 (0.01) % | Inhibition (%) (Ectocervical Cells; PtC 0.01 g/ml): 68.8105 (2.15) % | Invasion (%) (Ectocervical Cells; PtC 0.01 g/ml): 0.8379 (0.03) % | Inhibition (%) (Ectocervical Cells; PtC 0.1 g/ml): 87.3571 (0.28) % | Invasion (%) (Ectocervical Cells; PtC 0.1 g/ml): 0.3418 (0.01) % | Inhibition (%) (Ectocervical Cells; PtC 1.0 g/ml): 92.4681 (0.38) % | Invasion (%) (Ectocervical Cells; PtC 1.0 g/ml): 0.2038 (0.01) %

C=C1[C@@H](C)[C@H]2[C@H](Cc3ccccc3)NC(=O)[C@]23[C@H](OC(C)=O)/C=C/[C@@](C)(O)C(=O)[C@@H](C)C/C=C/[C@H]3[C@@H]1O [Cytochalasin D, cytochalasin D]
effect on bacterial entry / gonococcal invasion [1]: prohibited bacterial entry | PLD Activity in Ectocervical Cell Fractions [Mean (variance)] (PLD; Cytosolic fraction, 1291ΔPLD infected w/ inhibitor (300 nM wortmannin or 1 μM cytochalasin D)): 0.330 (0.07) Fluorescence Units | PLD Activity in Ectocervical Cell Fractions [Mean (variance)] (PLD; Cytosolic fraction, Uninfected w/ inhibitor (300 nM wortmannin or 1 μM cytochalasin D)): 0.395 (0.03) Fluorescence Units | PLD Activity in Ectocervical Cell Fractions [Mean (variance)] (PLD; Cytosolic fraction, WT 1291 infected w/ inhibitor (300 nM wortmannin or 1 μM cytochalasin D)): 0.462 ((0.03) Fluorescence Units | PLD Activity in Ectocervical Cell Fractions [Mean (variance)] (PLD; Membrane fraction, 1291ΔPLD infected w/ inhibitor (300 nM wortmannin or 1 μM cytochalasin D)): 0.393 (0.01) Fluorescence Units | PLD Activity in Ectocervical Cell Fractions [Mean (variance)] (PLD; Membrane fraction, Uninfected w/ inhibitor (300 nM wortmannin or 1 μM cytochalasin D)): 0.389 (0.01) Fluorescence Units | PLD Activity in Ectocervical Cell Fractions [Mean (variance)] (PLD; Membrane fraction, WT 1291 infected w/ inhibitor (300 nM wortmannin or 1 μM cytochalasin D)): 0.436 (0.03) Fluorescence Units

O=C(N[C@H](CO)[C@H](O)c1ccc([N+](=O)[O-])cc1)C(Cl)Cl [Chloramphenicol, chloramphenicol]
effect on bacterial entry / gonococcal invasion [1]: did not inhibit gonococcal invasion

CC1=C[C@H]2[C@@]3(O)[C@H](C)[C@@H](O)[C@]4(O)[C@H]([C@@H]3C=C(CO)C[C@@]2(O)C1=O)C4(C)C [4-α-phorbol]
effect on gonococcal association, invasion or CR3 cell surface recruitment (primary cervical cells): had no affect

C[C@@H]1C[C@@H]([C@H](O)CC2CC(=O)NC(=O)C2)C(=O)[C@@H](C)C1 [Cycloheximide, cycloheximide]
effect on bacterial entry / gonococcal invasion [1]: did not inhibit gonococcal invasion

COC(=O)Nc1nc2ccc(C(=O)c3cccs3)cc2[nH]1 [Nocodazole, nocodazole]
decrease in gonococcal invasion ([1]; pretreatment of primary cervical cell monolayers): ~67%

O=C(O)CN(CCOCCOCCN(CC(=O)O)CC(=O)O)CC(=O)O [EGTA, ethylene glycol bis-(2-aminoethyl ether)-N,N, N′, N′ tetraacetic acid]
effect on bacterial entry / gonococcal invasion [1]: prohibited bacterial entry

B1: rI domain: recombinant murine I-domain of CR3 alpha-subunit, 23 kilodalton peptide with Myc and His domains (SEQ ID NO: 11) (protein, listed as Mus musculus)
chain: FPQQESDIVFLIDGSGSINNIDFQKMKEFVSTVMEQFKKSKTLFSLMQYSDEFRIHFTFNDFKRNPSPRSHVSPIKQLNGRTKTASGIRKVVRELFHKTNGARENAAKILVVITDGEKFGDPLDYKDVIPEADRAGVIRYVIGVGNAFNKPQSRRELDTIASKPAGEHVFQVDNFEALNTIQNQLQEKIFAIPAAASFL
modifications: Myc and His tags
% inhibition of invasion of primary exocervical cells ([2]; rI domain 1 pg/ml): 17.4% | % inhibition of invasion of primary exocervical cells ([2]; rI domain 10 pg/ml): 56.3% | % inhibition of invasion of primary exocervical cells ([2]; rI domain 100 pg/ml): 77.5% | % inhibition of invasion of primary exocervical cells ([2]; rI domain 1 ng/ml): 92.1% | % inhibition of invasion of primary exocervical cells ([2]; rI domain 1 ng/ml, listed as rI-domain): over 90% | % inhibition of invasion of primary exocervical cells ([2]; rI domain 10 ng/ml): 94.6% | % inhibition of invasion of primary exocervical cells ([2]; rI domain 100 ng/ml): 96.8% | % inhibition of invasion of primary exocervical cells ([2]; rI domain 1 μg/ml, N. gonorrhoeae 1291): 98.56%

Reference: patent US7261901B2, “Vaccine and compositions for the prevention and treatment of neisserial infections” (University of Iowa Research Foundation, priority 2001, dated 2007)
